Data as given in patent publication US20220132758A1, “INTRODUCTION OF ACTIVE SUBSTANCES AND/OR DYE INTO PLANT TISSUE” (priority 2018, published 2022).

Tested on: bark beetle
Assay: Imidacloprid-impregnated beech shaped pieces shot into bark beetle-infested spruce trees
Assay type: in vivo
Conditions: 7% imidacloprid solution; 8 pieces per tree; after 3 weeks; bark 10 to 50 cm above the shooting sites
Method: 24 shaped pieces according to FIG. 1c, Z-. X-. Y-direction 45×13×3 mm, angle α 90°, angle β 60°, made of beech wood (Fagus sylvatica) were impregnated with a neonicotinoid, a 7% imidacloprid solution (solvent dichloromethane) and then dried. The chips were shot 8 at a time into bark beetle-infested spruce trees using a gas cramping device (Alsafix AGRAFEUSE SANS FIL 12GASCR). After 3 weeks, the bark in the region 10 to 50 cm above the shooting sites was removed and the feeding tunnels exposed.

`O=[N+]([O-])NC1=NCCN1Cc1ccc(Cl)nc1` [imidacloprid] was tested. Which “living larvae in feeding tunnels” value did it give?
Its value is “No living larvae were found”.
